What was measured:
AML12 cells = experiment: AML12 cell viability (CCK8); type: cell-based
Procedure: (§1) Mouse hepatocellular cell lines (AML12), purchased from the Shanghai Cell Bank of Chinese Academy of Sciences (Shanghai, China), were cultured in Dulbecco’s Modified Eagle Medium (DMEM) supplemented with 10% fetal bovine serum (FBS) and 2 mM L-glutamine and 1% pyruvate and maintained at 37 °C in a […], 5% CO2 incubator. Cells were seeded at a density of 5 × 10^5 cells/well in 6-well plates. […] Cells’ survival rate was detected by Cell Counting Kit-8 (CCK8) Reagents (Thermo Scientific, Singapore).

Rat body weight = type: in vivo; conditions: CHF rats, treatment vs DOX group, experiment I
Procedure: Experiment I, 48 rats were randomly divided into six groups: (1) the CON group; (2) the DOX group; (3) the DOX + enalapril (ENP, positive control, 1.8 mg/kg) group; (4) the DOX + SXT at low dose group (4 g/kg); (5) the DOX + SXT at middle dose group (8 g/kg); and […] the DOX + SXT at high dose group (16 g/kg). Except those rats in the CON group, the remaining rats received DOX at a 2.5 mg/kg per injection to a cumulative dose of 15 mg/kg. The dose of SXT for the low-dose group was set at 4 g/kg, based on the minimum human clinical daily dose (48.5 g, Table S2) converted to an equivalent rat dose using body surface area normalization (48.5 g/70 kg × 6.3 ≈ 4.4 g/kg, rounded to 4 g/kg). To evaluate a clear dose–response relationship, the medium and high doses were established at 8 g/kg and 16 g/kg, respectively, corresponding to 2 fold and 4 fold the low dose. […] Heart function was monitored by echocardiography analysis at day 39, and the CHF model was considered to be successfully established when the left ventricular ejection fraction (LVEF%) values were reduced to 50%. […]

[1] = test system: DOX-induced chronic heart failure (CHF) rat model; experiment: Echocardiography (LVEF%, LVFS%) in DOX-induced CHF rats; type: in vivo; conditions: DOX + ENP 1.8 mg/kg vs DOX group, p < 0.001
Procedure: Experiment I, 48 rats were randomly divided into six groups: (1) the CON group; (2) the DOX group; (3) the DOX + enalapril (ENP, positive control, 1.8 mg/kg) group; (4) the DOX + SXT at low dose group (4 g/kg); (5) the DOX + SXT at middle dose group (8 g/kg); and […] the DOX + SXT at high dose group (16 g/kg). Except those rats in the CON group, the remaining rats received DOX at a 2.5 mg/kg per injection to a cumulative dose of 15 mg/kg. The dose of SXT for the low-dose group was set at 4 g/kg, based on the minimum human clinical daily dose (48.5 g, Table S2) converted to an equivalent rat dose using body surface area normalization (48.5 g/70 kg × 6.3 ≈ 4.4 g/kg, rounded to 4 g/kg). To evaluate a clear dose–response relationship, the medium and high doses were established at 8 g/kg and 16 g/kg, respectively, corresponding to 2 fold and 4 fold the low dose. This gradient dosing strategy is consistent with the Technical Guidelines for Pharmacodynamic Studies of Traditional Chinese Medicine and the Technical Guidelines for General Pharmacology Studies of Traditional Chinese Medicine and Natural Drugs, and is further supported by our previous study on the effective dose range of SXT in a rat model of doxorubicin-induced chronic heart failure. Heart function was monitored by echocardiography analysis at day 39, and the CHF model was considered to be successfully established when the left ventricular ejection fraction (LVEF%) values were reduced to 50%. Urinary samples were collected at five time points (0, 10, 20, 30, and 39 d), while fecal samples were collected before the rats were euthanized. Subsequently, the rats were anesthetized, and blood samples and heart and liver tissues were collected. All bio-samples were stored at − 80 °C until analysis.
Experiment II was conducted to specifically confirm the exacerbated cardiac abnormality of phenylalanine in the DOX-induced CHF rats. […] Heart function was detected as in the experiment I.
Echocardiographic (ECG) measurements were performed using M-mode tracings and continuous Doppler with a Vevo 2100 system (Visual Sonics, Toronto, ON, Canada). Rats were anesthetized with isoflurane prior to imaging. Cardiac function indices including left ventricular ejection fraction (LVEF%) and left ventricular fractional shortening (LVFS%) were measured and recorded.

DOX-induced CHF rats = experiment: Serum biochemical parameters (BNP, CK, LDH, ALT, AST) by ELISA kits; type: in vivo, rat; conditions: treated groups vs DOX group, experiment I
Procedure: Serum biochemical parameters including brain natriuretic peptide (BNP), creatine kinase (CK), lactate dehydrogenase (LDH), alanine aminotransferase (ALT), and aspartate aminotransferase (AST) were measured using commercial ELISA kits (Nanjing Jiancheng Bioengineering Institute, Nanjing, China) according to the manufacturer's instructions. Superoxide dismutase (SOD), and malondialdehyde (MDA) levels in liver and heart tissues were measured using assay kits from […] Biotechnology (Changsha, China). Phenylalanine and tyrosine concentrations in the cell were determined using an ELISA kit from Abmart (Shanghai, China).

[2] = test system: cardiac tissues of DOX-induced CHF rats; experiment: Heart histopathology (H&E, Masson) and TUNEL apoptosis detection; type: in vivo, rat; conditions: treated groups vs DOX group
Procedure: Cardiac tissues were fixed in 4% paraformaldehyde, embedded in paraffin, and sectioned at 4–5 μm thickness. Hematoxylin and eosin (H&E) staining was performed to assess histopathological changes, while Masson’s trichrome staining was used to evaluate cardiac fibrosis. Apoptosis in cardiac tissues was detected using a TUNEL assay kit (C1088, Beyotime, Shanghai, China).

[3] = target: Phenylalanine hydroxylase (PAH) protein (Homo sapiens, UniProt P00439); experiment: Surface Plasmon Resonance (SPR) analysis, Biacore T200; type: binding; conditions: PAH immobilized on CM5 chip, read-out: dissociation constant (Kd)
Chain of Phenylalanine hydroxylase (PAH) protein (P00439 whole entry): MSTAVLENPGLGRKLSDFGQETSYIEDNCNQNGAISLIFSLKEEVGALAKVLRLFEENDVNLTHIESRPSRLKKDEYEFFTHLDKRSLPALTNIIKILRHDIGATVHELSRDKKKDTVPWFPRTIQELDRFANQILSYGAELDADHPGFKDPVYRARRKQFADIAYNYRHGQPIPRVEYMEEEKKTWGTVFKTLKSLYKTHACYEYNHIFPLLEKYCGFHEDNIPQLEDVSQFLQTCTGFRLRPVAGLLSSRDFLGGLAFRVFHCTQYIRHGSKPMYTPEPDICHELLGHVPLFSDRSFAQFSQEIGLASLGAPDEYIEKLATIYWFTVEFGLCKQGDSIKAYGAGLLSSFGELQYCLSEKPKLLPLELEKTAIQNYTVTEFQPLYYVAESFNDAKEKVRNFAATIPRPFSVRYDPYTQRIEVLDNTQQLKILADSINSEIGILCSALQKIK
Procedure: SPR assays were conducted using a Biacore T200 system (GE Healthcare Life Sciences, USA). Phenylalanine hydroxylase (PAH) protein was immobilized on CM5 sensor chips using an amine-coupling kit (BR100050, GE Healthcare) following standard procedures. […] Samples were injected over reference and PAH-immobilized flow cells at a flow rate of 30 μL/min, with 120 s contact time and 120 s dissociation time. Kinetic parameters were calculated using Biacore T200 evaluation software.

[4] = test system: PAH activity in AML12 cells; type: cell-based; conditions: BH4 10 μM; timosaponin B-II, neomangiferin, anemarrhenasaponin I 5, 10, 20 μM; timosaponin AIII 0.1, 0.2, 0.5 μM
Procedure: Serum biochemical parameters including brain natriuretic peptide (BNP), creatine kinase (CK), lactate dehydrogenase (LDH), alanine aminotransferase (ALT), and aspartate aminotransferase (AST) were measured using commercial ELISA kits (Nanjing Jiancheng Bioengineering Institute, Nanjing, China) according to the manufacturer’s instructions. Superoxide dismutase (SOD), and malondialdehyde (MDA) levels in liver and heart tissues were measured using assay kits from Aifang Biotechnology (Changsha, China). Phenylalanine and tyrosine concentrations in the cell were determined using an ELISA kit from Abmart (Shanghai, China).
as §1

SMILES: O=c1c(-c2ccc(O)cc2)coc2cc(O)ccc12 [Daidzein]
- non-cytoxic concentration (AML12 cells; mouse): 5 to 20 µM

SMILES: CCOC(=O)[C@H](CCc1ccccc1)N[C@@H](C)C(=O)N1CCC[C@H]1C(=O)O [ENP, Enalapril]
- body weight (Rat body weight): partially restored
- LVEF and LVFS [1]: significantly higher
- serum ALT and AST levels (DOX-induced CHF rats): markedly reduced
- TUNEL-positive cardiomyocytes [2]: reduction

SMILES: COc1ccc(-c2coc3cc(O)ccc3c2=O)cc1 [Formononetin]
- non-cytoxic concentration (AML12 cells; AML12 cells): 5 to 20 µM

SMILES: COc1ccc(/C=C/C(=O)O)cc1O [Isoferulic acid]
- non-cytoxic concentration (AML12 cells; AML12 cells): 5 to 20 µM

SMILES: COc1ccc(-c2coc3cc(O[C@@H]4O[C@H](CO)[C@@H](O)[C@H](O)[C@H]4O)ccc3c2=O)cc1 [Ononin]
- non-cytoxic concentration (AML12 cells; AML12 cells): 5 to 20 µM

SMILES: C[C@H]1CC[C@@]2(OC1)O[C@H]1C[C@H]3[C@@H]4CC[C@@H]5C[C@@H](O[C@@H]6O[C@H](CO)[C@H](O)[C@H](O)[C@H]6O[C@@H]6O[C@H](CO)[C@@H](O)[C@H](O)[C@H]6O)CC[C@]5(C)[C@H]4CC[C@]3(C)[C@H]1[C@@H]2C [Timosaponin A-III]
- Kd [3]: < 10 µM
- phenylalanine levels in AML12 cells increased by DOX [4]: significantly reduce
- non-cytoxic concentration (AML12 cells; mouse): 0.1 to 0.5 µM

SMILES: C[C@H]1CC[C@@]2(OC1)O[C@H]1C[C@H]3[C@@H]4CC[C@@H]5C[C@@H](O[C@@H]6O[C@H](CO)[C@H](O)[C@H](O)[C@H]6O[C@@H]6O[C@H](CO)[C@@H](O)[C@H](O)[C@H]6O)[C@@H](O)C[C@]5(C)[C@H]4CC[C@]3(C)[C@H]1[C@@H]2C [Timosaponin A-II]
- non-cytoxic concentration (AML12 cells; AML12 cells): 0.1 to 0.5 µM

SMILES: C[C@@H](CC[C@@]1(O)O[C@H]2C[C@H]3[C@@H]4CC[C@@H]5C[C@@H](O[C@@H]6O[C@H](CO)[C@H](O)[C@H](O)[C@H]6O[C@@H]6O[C@H](CO)[C@@H](O)[C@H](O)[C@H]6O)CC[C@]5(C)[C@H]4CC[C@]3(C)[C@H]2[C@@H]1C)CO[C@@H]1O[C@H](CO)[C@@H](O)[C@H](O)[C@H]1O [Timosaponin B-II]
- Kd [3]: < 10 µM
- phenylalanine levels in AML12 cells increased by DOX [4]: significantly reduce
- non-cytoxic concentration (AML12 cells; mouse): 5 to 20 µM

— article PMC12794274, “Therapeutic potential of Sheng-Xian-Tang in doxorubicin-induced chronic heart failure by regulation of phenylalanine metabolism disruption” (Chinese Medicine, 2026)
